Assay results as given in publication PMC4519324, “Substrate Specificity, Inhibitor Selectivity and Structure-Function Relationships of Aldo-Keto Reductase 1B15: A Novel Human Retinaldehyde Reductase” (PLoS ONE, 2015).
Read-outs that look alike come from different tables or passages of the source.

How the values were obtained:
[1] = target: T1, AKR1B10 (Homo sapiens, UniProt O60218); assay: NADPH binding by quenching of Trp intrinsic fluorescence; conditions: 0.5 μM protein, 20 mM sodium phosphate, pH 7.0, 25°C, read-out: K D value for NADPH
T1 construct: made in house
Description: (§1) NADPH binding was analyzed by quenching of Trp intrinsic fluorescence of 0.5 μM protein, using a Cary Eclipse (Varian) fluorimeter, in 20 mM sodium phosphate, pH 7.0, at 25°C in a final volume of 1 mL. The excitation wavelength was 290 nm and the emission wavelength was monitored at 340 nm. AKR1B10 was used as a control. The dissociation constant (K D) values were calculated by nonlinear fitting of experimental data, using Grafit 5.0 (Eritacus Software), to the Morrison equation: ΔF=ΔFmax·[E]+[NADPH]+KD−([E]+[NADPH]+KD)^2−4·[E]·[NADPH]/2·[E]

[2] = target: T2, AKR1B15 (Homo sapiens, UniProt C9JRZ8); assay: as above; conditions: 0.5 μM protein, 20 mM sodium phosphate, pH 7.0, 25°C, read-out: K D value for NADPH
T2 construct: made in house; host or cells: E. coli BL21(DE3), with or without chaperone plasmids pBB540/pBB542
Description: as §1

[3] = target: T3, AKR1B1 (Homo sapiens, UniProt P15121); conditions: read-out: Km (μM) for cofactor NADPH; cited from earlier work
T3 construct: made in house

[4] = target: T1, AKR1B10; assay: Spectrophotometric activity assay (NADPH decrease at 340 nm), substrate kinetics; assay type: biochemical; conditions: 60 mM D,L-glyceraldehyde, read-out: Km (μM) for cofactor NADPH
[5] = target: T2, AKR1B15; assay: as above; assay type: biochemical; conditions: 3 mM D,L-glyceraldehyde, read-out: Km (μM) for cofactor NADPH
[6] = target: T2, AKR1B15; assay: Inhibition screening with D,L-glyceraldehyde as substrate; assay type: biochemical; conditions: 6 mM D,L-glyceraldehyde as substrate, 0.1% DMSO
Description: (§2) Activities were determined in 100 mM sodium phosphate, pH 7.0, at 25°C, using 0.2 mM NADPH in 0.2-cm path length cuvettes, with freshly prepared substrate solutions. One unit of activity is defined as the amount of enzyme required to transform 1 μmol of substrate per min at 25°C.
(§3) All compounds tested as inhibitors were dissolved in DMSO and assayed in a final concentration of 0.1% (v/v) DMSO using 6 mM D,L-glyceraldehyde as a substrate. Kinetic constant and IC50 (compound concentration that inhibits enzymatic activity by 50%) values were calculated by fitting the initial rates to the appropriate equation using Grafit 5.0 (Eritacus Software) and values were given as the mean ± standard error of three experiments. Standard error values were less than 20% of the mean values.

[7] = target: T1, AKR1B10; conditions: AKR1B10, values in Table 3; cited from earlier work
[8] = target: T1, AKR1B10; assay: Inhibition of enzymatic activity with D,L-glyceraldehyde as substrate; assay type: biochemical
Description: as §2, §3

T2 sequence (C9JRZ8 whole entry): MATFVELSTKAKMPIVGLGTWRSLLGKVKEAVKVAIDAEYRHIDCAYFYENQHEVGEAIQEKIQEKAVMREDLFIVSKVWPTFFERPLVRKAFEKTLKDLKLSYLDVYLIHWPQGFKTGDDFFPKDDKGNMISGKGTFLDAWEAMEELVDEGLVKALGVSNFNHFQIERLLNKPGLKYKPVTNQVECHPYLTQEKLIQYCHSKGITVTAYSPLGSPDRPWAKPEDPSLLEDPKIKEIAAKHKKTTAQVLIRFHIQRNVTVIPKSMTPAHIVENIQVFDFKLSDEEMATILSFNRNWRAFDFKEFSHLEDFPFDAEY
T1 sequence (O60218 whole entry): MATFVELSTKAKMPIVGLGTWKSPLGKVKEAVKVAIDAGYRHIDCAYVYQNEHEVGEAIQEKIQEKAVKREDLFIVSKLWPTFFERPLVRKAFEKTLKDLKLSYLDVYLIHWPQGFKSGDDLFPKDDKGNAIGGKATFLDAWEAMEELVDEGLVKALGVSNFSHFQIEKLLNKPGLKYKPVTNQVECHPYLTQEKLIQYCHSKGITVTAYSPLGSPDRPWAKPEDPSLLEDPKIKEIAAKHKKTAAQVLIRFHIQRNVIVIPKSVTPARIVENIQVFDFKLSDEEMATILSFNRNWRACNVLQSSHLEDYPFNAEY

| SMILES | Kd [1] [nM] | Kd [2] [nM] | Km [3] [µM] | Km [4] [µM] | Km [5] [µM] | IC50 [6] [nM] | IC50 [7] [nM] | IC50 [8] [nM] |
| --- | --- | --- | --- | --- | --- | --- | --- | --- |
| NC(=O)C1=CN([C@@H]2O[C@H](COP(=O)(O)OP(=O)(O)OC[C@H]3O[C@@H](n4cnc5c(N)ncnc54)[C@H](OP(=O)(O)O)[C@@H]3O)[C@@H](O)[C@H]2O)C=CC1 [NADPH] | 92 ± 35 | 113 ± 9 | 2.9 | 10 | 5.7 |  |  |  |
| COc1ccc2c(C(=S)N(C)CC(=O)O)cccc2c1C(F)(F)F [Tolrestat] |  |  |  |  |  | > 100000 | < 10000 | 6 |
